Tests used:
[1] = test system: human breast cancer BR-05-0028 model; assay: In vivo efficacy, human breast cancer BR-05-0028 mouse xenograft tumor; design: species or system BALB/c nude mice
Method: II. The tumor diameter was measured with a vernier caliper and the tumor volume was calculated according to the formula V=0.5a×b^2 (where a is the longest diameter of the tumor and b is the shortest diameter of the tumor). […] Animals in each group were administered by tail vein injection, and the control group was given an equal volume of vehicle. […] T/C and TGI values were calculated using tumor volume. The calculation formula is as follows: T/C %=TRTV/CRTV×100% (TRTV: RTV of the treatment group; CRTV: RTV of the vehicle control group). The relative tumor volume (RTV) was calculated based on the results of tumor measurement, and the calculation formula was RTV=Vt/V0, where V0 was the average tumor volume measured at the time of grouping (i.e., D0), Vt was the average tumor volume at one measurement, and TRTV and CRTV took the same day of data.
The human breast cancer BR-05-0028 model (IHC 3±) was derived from tumor samples resected in clinical surgery. The tumor samples were inoculated into nude mice at the P0 generation, and the tumor tissue used in this example was the P5 generation. Tumor tissue with a volume of about 30 mm^3 was subcutaneously inoculated into the right back dorsum of SPF female BALB/c nude mice aged 6-8 weeks.

[2] = test system: MDA-MB-468 mouse xenograft tumor; assay: In vivo efficacy, MDA-MB-468 mouse xenograft tumor; design: species or system BALB/c Nude mice; settings: 4.5 mg/kg, intravenously
Method: The MDA-MB-468 tumor cells (ATCC, HTB-132) were maintained in vitro as a monolayer culture in L-15 medium supplemented with 10% fetal bovine serum and 1% Antibiotic-Antimycotic at 37° C. in an atmosphere of 0% CO2 in air. The cells growing in an exponential growth phase will be harvested and counted for tumor inoculation. For in vivo anti-tumor efficacy study, 10×10^6 MDA-MB-468 human breast cancer cells (Trop2 positive) in 0.2 mL of PBS with Matrigel (1:1) were inoculated subcutaneously in the right flank in BALB/c Nude mice. […] The tumor volume was measured twice weekly with a caliper. T/C and TGI values were calculated using tumor volume.

[3] = test system: NCI-N87 mouse xenograft tumor; assay: In vivo efficacy, NCI-N87 mouse xenograft tumor; design: species or system BALB/c nude mice; settings: Table 14, BIW*6, 3 mg/kg
[4] = Table 15, BIW*6, 5 mg/kg, Day 21

With Trodelvy the “Tumor volume (mm^3) Day 21” value ([1]; Table 15, BIW*6, 5 mg/kg) was 5 ± 2 mm^3, the “T/C (%)” value [1, 4] was 0.35% and the “TGI (%)” value [1, 4] was 111.76%. For the same substance, the “Tumor volume (mm^3) Day 0” value ([1]; Table 15, BIW*6, 5 mg/kg, baseline at grouping) was 171 ± 29 mm^3, the “tumor growth inhibition (in words)” value ([1]; effect example 3.1.3, 5 mg/kg (ADC-1 also 10 mg/kg), after 21 days) was “able to significantly inhibit tumor growth” and the “Tumor volume (mm^3) on day 35” value [2] was 535 ± 60 mm^3. The “T/C (%)” value ([2]; day 35) was 78.73%, the “TGI (%)” value ([2]; day 35) was 29.24% and the “Tumor volume (mm^3) Day 32” value [3] was 864 ± 114 mm^3. The “T/C (%)” value ([3]; Day 32) was 65.85%, the “TGI (%)” value ([3]; Day 32) was 41.10% and the “Tumor volume (mm^3) Day 0” value ([3]; baseline at grouping) was 227 ± 21 mm^3.
